Measured values from ChEMBL document CHEMBL2424644, “Synthesis and antiproliferative evaluation of novel benzoimidazole-contained oxazole-bridged analogs of combretastatin A-4” (Eur J Med Chem, 2013).

What was measured:
BXPC-3 [1] = assay: Cytotoxicity against human BxPC3 cells assessed as growth inhibition after 72 hrs by MTT assay; format: functional, cell-based; details: BXPC-3, 72 h
HT-29 [2] = assay: Cytotoxicity against human HT-29 cells assessed as growth inhibition after 72 hrs by MTT assay; format: functional, cell-based; details: HT-29, 72 h
HepG2 = assay: Cytotoxicity against human HepG2 cells assessed as growth inhibition after 72 hrs by MTT assay; format: functional, cell-based; details: HepG2, 72 h
A549 = assay: Cytotoxicity against human A549 cells assessed as growth inhibition after 72 hrs by MTT assay; format: functional, cell-based; details: A549, 72 h
MCF7 [3] = assay: Cytotoxicity against human MCF7 cells assessed as growth inhibition after 72 hrs by MTT assay; format: functional, cell-based; details: MCF7, 72 h
MX1 [4] = assay: Cytotoxicity against taxol-resistant human MX1 cells assessed as growth inhibition after 72 hrs by MTT assay; format: functional, cell-based; details: MX1, 72 h
MX1 [5] = assay: Cytotoxicity against human MX1 cells assessed as growth inhibition after 72 hrs by MTT assay; format: functional, cell-based; details: MX1, 72 h
KB [6] = assay: Cytotoxicity against vincristine-resistant human KB cells assessed as growth inhibition after 72 hrs by MTT assay; format: functional, cell-based
KB [7] = assay: Cytotoxicity against human KB cells assessed as growth inhibition after 72 hrs by MTT assay; format: functional, cell-based
Mus musculus [8] = assay: Toxicity in KM mouse allografted with mouse H22 cells assessed as body weight at 7.5 mg/kg, ip administered on day 1 to 7 measured on day 8 (reference value: 30 +/- 3.24 g); format: organism-based; parameters: dose 7.5 mg/kg, route intraperitoneal; details: in vivo
Mus musculus [9] = assay: Toxicity in KM mouse allografted with mouse H22 cells assessed as body weight at 10 mg/kg, ip administered on day 1, 3, 5, 7 measured on day 8 (reference value: 30 +/- 3.24 g); format: organism-based; parameters: dose 10 mg/kg, route intraperitoneal; details: in vivo
Mus musculus [10] = assay: Toxicity in KM mouse allografted with mouse H22 cells assessed as body weight at 15 mg/kg, ip administered on day 1 and 4 measured on day 8 (reference value: 30 +/- 3.24 g); format: organism-based; parameters: dose 15 mg/kg, route intraperitoneal; details: in vivo
Mus musculus [11] = assay: Toxicity in KM mouse allografted with mouse H22 cells assessed as body weight at 20 mg/kg, ip administered on day 1 measured on day 8 (reference value: 30 +/- 3.24 g); format: organism-based; parameters: dose 20 mg/kg, route intraperitoneal; details: in vivo
H22 [12] = assay: Antitumor activity against mouse H22 cells allografted in KM mouse assessed as tumor growth inhibition at 7.5 mg/kg, ip administered on day 1 to 7 measured on day 8 relative to control; format: functional; details: route intraperitoneal, read-out: TGI
H22 [13] = assay: Antitumor activity against mouse H22 cells allografted in KM mouse assessed as tumor growth inhibition at 10 mg/kg, ip administered on day 1, 3, 5, 7 measured on day 8 relative to control; format: functional; details: route intraperitoneal, read-out: TGI
H22 [14] = assay: Antitumor activity against mouse H22 cells allografted in KM mouse assessed as tumor growth inhibition at 15 mg/kg, ip administered on day 1 and 4 measured on day 8 relative to control; format: functional; details: route intraperitoneal, read-out: TGI
H22 [15] = assay: Antitumor activity against mouse H22 cells allografted in KM mouse assessed as tumor growth inhibition at 20 mg/kg, ip administered on day 1 measured on day 8 relative to control; format: functional; details: route intraperitoneal, read-out: TGI
HT-29 [16] = assay: Cell cycle arrest in human HT-29 cells assessed as accumulation at G2/M phase after 24 hrs by propidium iodide staining-based flow cytometric analysis; format: functional
HT-29 [17] = assay: Cell cycle arrest in human HT-29 cells assessed as accumulation at G2/M phase at 100 nM after 24 hrs by propidium iodide staining-based flow cytometric analysis (reference value: 7.37%); format: functional
HT-29 [18] = assay: Cell cycle arrest in human HT-29 cells assessed as accumulation at G2/M phase at 50 nM after 24 hrs by propidium iodide staining-based flow cytometric analysis (reference value: 7.37%); format: functional
HT-29 [19] = assay: Cell cycle arrest in human HT-29 cells assessed as accumulation at G2/M phase at 12.5 nM after 24 hrs by propidium iodide staining-based flow cytometric analysis (reference value: 7.37%); format: functional
HT-29 [20] = assay: Cell cycle arrest in human HT-29 cells assessed as accumulation at S phase at 100 nM after 24 hrs by propidium iodide staining-based flow cytometric analysis (reference value: 24.39%); format: functional
HT-29 [21] = assay: Cell cycle arrest in human HT-29 cells assessed as accumulation at S phase at 50 nM after 24 hrs by propidium iodide staining-based flow cytometric analysis (reference value: 24.39%); format: functional
HT-29 [22] = assay: Cell cycle arrest in human HT-29 cells assessed as accumulation at S phase at 12.5 nM after 24 hrs by propidium iodide staining-based flow cytometric analysis (reference value: 24.39%); format: functional
HT-29 [23] = assay: Cell cycle arrest in human HT-29 cells assessed as accumulation at G0/G1 phase at 100 nM after 24 hrs by propidium iodide staining-based flow cytometric analysis (reference value: 68.24%); format: functional
HT-29 [24] = assay: Cell cycle arrest in human HT-29 cells assessed as accumulation at G0/G1 phase at 50 nM after 24 hrs by propidium iodide staining-based flow cytometric analysis (reference value: 68.24%); format: functional
HT-29 [25] = assay: Cell cycle arrest in human HT-29 cells assessed as accumulation at G0/G1 phase at 12.5 nM after 24 hrs by propidium iodide staining-based flow cytometric analysis (reference value: 68.24%); format: functional
Tubulin = assay: Inhibition of tubulin (unknown origin) polymerization measured for 60 mins; format: protein-complex assay, Homo sapiens
HT-29 [26] = assay: Potency index, ratio of combretastatin A-4 IC50 to compound IC50 for human HT-29 cells; format: functional
BXPC-3 [27] = assay: Potency index, ratio of vincristine IC50 to compound IC50 for human BxPC3 cells; format: functional
MCF7 [28] = assay: Potency index, ratio of combretastatin A-4 IC50 to compound IC50 for human MCF7 cells; format: functional

## CCOC(=O)Cn1cnc2c(-c3ocnc3-c3cc(OC)c(OC)c(OC)c3)ccc(OC)c21
BXPC-3 [1]
  IC50: > 500 nM
HT-29 [2]
  IC50: > 500 nM
HepG2
  IC50: > 500 nM
A549
  IC50: > 500 nM
MCF7 [3]
  IC50: > 500 nM

## COc1cc(-c2ncoc2-c2ccc(OC)c3c2ncn3C)cc(OC)c1OC
MX1 [4]
  IC50: 12800 nM
MX1 [5]
  IC50: 334 nM
KB [6]
  IC50: 27 nM
KB [7]
  IC50: 41 nM
BXPC-3 [1]
  IC50: 56 nM
HT-29 [2]
  IC50: 14 nM
HepG2
  IC50: 29 nM
A549
  IC50: 9.6 nM
MCF7 [3]
  IC50: 39 nM

## COc1cc(-c2ncoc2-c2ccc(OC)c3c2ncn3CCO)cc(OC)c1OC
HT-29 [2]
  IC50: 170 nM
HepG2
  IC50: 250 nM
MCF7 [3]
  IC50: 510 nM

## COc1cc(-c2ncoc2-c2ccc(OC)c3ncn(CC(=O)O)c23)cc(OC)c1OC
BXPC-3 [1]
  IC50: > 5000 nM
HT-29 [2]
  IC50: > 5000 nM
HepG2
  IC50: > 5000 nM
A549
  IC50: > 5000 nM
MCF7 [3]
  IC50: > 5000 nM

## COc1cc(-c2ncoc2-c2ccc(OC)c3[nH]cnc23)cc(OC)c1OC
Mus musculus [8]
  Activity: 25.5 g
Mus musculus [9]
  Activity: 28.4 g
Mus musculus [10]
  Activity: 24.4 g
Mus musculus [11]
  Activity: 30.4 g
H22 [12]
  inhibition in vivo at 7.5 mg/kg: 55%
H22 [13]
  inhibition in vivo at 10 mg/kg: 52%
H22 [14]
  inhibition in vivo at 15 mg/kg: 66%
H22 [15]
  inhibition in vivo at 20 mg/kg: 42%
HT-29 [16]
  Activity: Dose-dependent effect
HT-29 [17]
  Activity: 44.25%
HT-29 [18]
  Activity: 35.63%
HT-29 [19]
  Activity: 14.75%
HT-29 [20]
  Activity: 30.04%
HT-29 [21]
  Activity: 34.83%
HT-29 [22]
  Activity: 24.97%
HT-29 [23]
  Activity: 25.71%
HT-29 [24]
  Activity: 29.54%
HT-29 [25]
  Activity: 50.29%
Tubulin
  IC50: 390 nM
MX1 [4]
  IC50: 249 nM
MX1 [5]
  IC50: 397 nM
KB [6]
  IC50: 65 nM
KB [7]
  IC50: 16 nM
HT-29 [26]
  Ratio IC50: 32
BXPC-3 [27]
  Ratio IC50: 16
MCF7 [28]
  Ratio IC50: 8
BXPC-3 [1]
  IC50: 31 nM
HT-29 [2]
  IC50: 8.4 nM
MCF7 [3]
  IC50: 25 nM

## COC(=O)n1cnc2c(OC)ccc(-c3ocnc3-c3cc(OC)c(OC)c(OC)c3)c21
MX1 [4]
  IC50: 565 nM
MX1 [5]
  IC50: 393 nM
KB [6]
  IC50: 70 nM
KB [7]
  IC50: 27 nM
BXPC-3 [1]
  IC50: 42 nM
HT-29 [2]
  IC50: 11 nM
HepG2
  IC50: 20 nM
A549
  IC50: 3.8 nM
MCF7 [3]
  IC50: 17 nM

## COc1cc(-c2ncoc2-c2ccc(OC)c3ncn(CCCO)c23)cc(OC)c1OC
MX1 [4]
  IC50: > 10000 nM
MX1 [5]
  IC50: 3780 nM
KB [6]
  IC50: > 10000 nM
KB [7]
  IC50: 346 nM
HT-29 [2]
  IC50: 290 nM
HepG2
  IC50: 310 nM
MCF7 [3]
  IC50: 500 nM

## COC(=O)c1sccc1S(=O)(=O)n1cnc2c(-c3ocnc3-c3cc(OC)c(OC)c(OC)c3)ccc(OC)c21
BXPC-3 [1]
  IC50: 941 nM
HT-29 [2]
  IC50: 163 nM
HepG2
  IC50: 134 nM
A549
  IC50: 2510 nM
MCF7 [3]
  IC50: 435 nM

## COc1cc(-c2ncoc2-c2ccc(OC)c3ncn(C)c23)cc(OC)c1OC
BXPC-3 [1]
  IC50: 220 nM
HT-29 [2]
  IC50: 52 nM
HepG2
  IC50: 200 nM
A549
  IC50: 37 nM
MCF7 [3]
  IC50: 41 nM

## COc1cc(-c2ncoc2-c2ccc(OC)c3c2ncn3CC(N)=O)cc(OC)c1OC
HT-29 [2]
  IC50: > 10000 nM
HepG2
  IC50: 990 nM
MCF7 [3]
  IC50: > 10000 nM
